Entries after “also recorded” stand apart in the source; their conditions may differ.
Columns and labels:
ERK signaling = ERK signaling in MED12-suppressed cancer cells in presence of drugs; format: cell-based, human
Description: The cells were fixed, stained and photographed after 10 (untreated) or 28 days (treated). […] The cells were fixed, stained and photographed after 14 (untreated) or 28 days (treated). […] G) Colony formation assay of Huh-7 cells expressing pLKO control or shMED12 vectors (#4 and #5) were cultured in 2 μM sorafenib. The cells were fixed, stained and photographed after 14 (untreated) or 21 days (treated). […] Huh-7 cells expressing pLKO control or shMED12 vectors were grown in the absence or presence of 4 μM sorafenib for 6 hours and the cell lysates were harvested for western blotting analysis.

[1] = test system: SK-CO-1 colorectal cancer cells (KRASV12); test: Long-term colony formation assay in SK-CO-1 cells; format: cell-based, human; conditions: for effect of recombinant TGFβ on response of SK-CO-1 cells to AZD6244: TGFβ plus AZD6244, TGFβ-dosage dependent
Description: (§1) Cells were seeded into 6-well plates (2-5×10^4 cells/well) and cultured both in the absence and presence of drugs as indicated. More details are described in Huang et al., 2009 (Huang et al., 2009). All knockdown and overexpression experiments were done by retroviral or lentiviral infection. All relevant assays were performed independently at least three times.

[2] = test system: H3122 cells (EML4-ALK NSCLC); test: Long-term colony formation / cell proliferation assay in H3122 cells; format: cell-based, human; conditions: for effect of recombinant TGFβ on crizotinib response of H3122 cells: TGFβ in combination with crizotinib, TGFβ-dosage dependent
Description: (§2) Single cell suspensions of the lung cancer cell lines were seeded into 6-well plates (2×10^4 cells/well) and cultured both in the absence and presence of the ALK inhibitors. At the endpoints of colony formation assays, cells were fixed with formaldehyde, stained with crystal violet (0.1% w/v) and photographed. All relevant assays were performed independently at least three times. All knockdown and overexpression experiments were done by retroviral or lentiviral infections.
(§3) Cells were seeded into 6-well plates (2-5×10^4 cells/well) and cultured both in the absence and presence of drugs as indicated. […] All knockdown and overexpression experiments were done by retroviral or lentiviral infection. All relevant assays were performed independently at least three times.

[3] = test system: human NSCLC cell lines that harbor EML4-ALK translocations; conditions: Galkin 2007; Koivunen 2008; Soda 2007; cited from earlier work
phospho-ERK [4] = test: Western blotting of phospho-ERK in H3122 cells; format: cell-based, human; conditions: 20 nM NVP-TAE684, 24 hours
Description: (A) MED12^KD cells retain phospho-ERK levels in the presence of ALK inhibitor in EML4-ALK cells. H3122 cells expressing controls (pRS or shGFP) or shMED12 vectors were gown in the absence or presence of 20 nM NVP-TAE684 for 24 hours and the cell lysates were harvested for western blotting analysis. (B) SMARCE1^KD cells have elevated phospho-ERK in EML4-ALK cells. H3122 cells expressing controls (pRS or shGFP) or shSMARCE1 vectors were gown in the absence or presence of 20 nM NVP-TAE684 for 24 hours and the cell lysates were harvested for western blotting analysis. (C) MED12^KD cells have elevated phospho-ERK levels in EGFR mutant cells.
Given that loss of MED12 or SMARCE1 causes resistance to multiple tyrosine kinase inhibitors in NSCLC cell lines, Applicants asked whether the activity of downstream components of receptor tyrosine kinase signaling is altered. ERK is a key downstream component and its phosphorylation status positively correlates with its activation that can be determined by specific antibodies against the phosphorylated form of ERK. H3122 cells were infected with two independent controls shRNA vectors or shRNAs targeting either MED12 or SMARCE1 and confirmed loss of MED12 or SMARCE1 protein by immunoblotting (FIGS. 16A and B). […]

[5] = test system: A375 melanoma cells (BRAFV600E); test: Long-term colony formation assay in A375 cells; format: cell-based, human; conditions: for drug response of MED12 knockdown A375 cells: suppression of MED12; for effect of recombinant TGFβ on response of A375 cells to PLX4032 and AZD6244: TGFβ plus PLX4032 or AZD6244, TGFβ-dosage dependent
Description: as §3

[6] = test system: H1993 cells (MET-amplified NSCLC); test: Long-term colony formation assay in H1993 cells; format: cell-based, human
Description: as §2, §3

[7] = test system: EBC-1 cells (MET-amplified NSCLC); test: Long-term colony formation assay in EBC-1 cells; format: cell-based, human
Description: as §2, §3

[8] = test system: PC9 cells (EGFR delE746-A750 NSCLC); test: Long-term colony formation / cell proliferation assay in PC9 cells; format: cell-based, human
Description: as §2, §3

[9] = test system: PC9 cells (EGFR delE746-A750 NSCLC); conditions: parental cells, low nanomolar concentrations; cited from earlier work
[10] = test system: H3255 cells (EGFR L858R NSCLC); conditions: parental cells, low nanomolar concentrations; cited from earlier work
[11] = test system: H3255 cells (EGFR L858R NSCLC); test: Long-term colony formation / cell proliferation assay in H3255 cells; format: cell-based, human
Description: as §2, §3

phospho-ERK [12] = test: Western blotting of phospho-ERK in PC9 cells; format: cell-based, human; conditions: 25 nM gefitinib, 8 hours
Description: (A) Validation of independent shRNAs (in pLKO vector) targeting DABP2IP in PC9 cells. […] The cells were fixed, stained and photographed after 2 weeks (untreated) or 4 weeks (EGFR inhibitors treatment). (B) The knockdown ability of each of the shRNAs was measured by examining the DAB2IP mRNA levels by qRT-PCR. Error bars denote standard deviation (SD).
To validate the results of Applicants' focused shRNA mini-screen, Applicants individually introduced the five DAB2IP shRNAs from the TRC shRNA collection into PC9 cells (FIG. 14A). […] Next, Applicants addressed whether loss of DAB2IP affects the activity of downstream signaling components of the RAS pathway, in particular the phosphorylation (activation) status of ERK. […] Next, Applicants individually introduced the five NF1 shRNAs from the TRC shRNA collection into PC9 cells (FIG. 15A).

Huh-7 HCC cells = test: Long-term colony formation assay in Huh-7 cells; format: cell-based, human
Description: as §1

## Cn1cnc2c(F)c(Nc3ccc(Br)cc3Cl)c(C(=O)NOCCO)cc21 [AZD6244, seluteminib]
ERK signaling
  activation of ERK signaling by MED12 suppression in the presence of drug: persists
[1]; parental cells
  sensitivity of SK-CO-1 cells: highly sensitive
[1]; shMED12, 0.5 μM AZD6244
  drug response of MED12 knockdown SK-CO-1 cells: conferred resistance

## Cc1cccc(-c2nn3c(c2-c2ccnc4ccc(C(N)=O)cc24)CCC3)n1 [LY2157299]
[2]; 1 μM LY2157299 alone, all cells
  proliferation under monotherapy, control and MED12KD H3122 cells: little effect

## COc1cc(N2CCC(N3CCN(C)CC3)CC2)ccc1Nc1ncc(Cl)c(Nc2ccccc2S(=O)(=O)C(C)C)n1 [NVP-TAE684]
[2]; shARID1A, 300 nM crizotinib or 2.5 nM NVP-TAE684
  drug response of ARID1A knockdown H3122 cells: confer resistance
[2]; shMED12 vectors, 300 nM crizotinib or 2.5 nM NVP-TAE684
  drug response of MED12 knockdown H3122 cells: confer resistance; also recorded: conferred resistance
[2]; shSMARCE1, 300 nM crizotinib or 2.5 nM NVP-TAE684
  drug response of SMARCE1 knockdown H3122 cells: confer resistance
[3]
  inhibition of EML4-ALK NSCLC cell lines: potently inhibit
phospho-ERK [4]; shMED12
  ERK phosphorylation in MED12 knockdown H3122 cells in presence of inhibitor: maintained higher levels of ERK phosphorylation
phospho-ERK [4]; shSMARCE1
  phosphorylated ERK in SMARCE1 knockdown H3122 cells in presence of inhibitor: maintained higher levels of phosphorylated ERK

## O=C(NOC[C@H](O)CO)c1ccc(F)c(F)c1Nc1ccc(I)cc1F [PD-0325901]
[5]
  drug response of MED12 knockdown A375 cells: conferred resistance

## CCCS(=O)(=O)Nc1ccc(F)c(C(=O)c2c[nH]c3ncc(Cl)cc23)c1F [PLX4720]
[5]
  drug response of MED12 knockdown A375 cells: conferred resistance

## C[C@@H](Oc1cc(-c2cnn(C3CCNCC3)c2)cnc1N)c1c(Cl)ccc(F)c1Cl [crizotinib]
[6]; shARID1A #1 and #2
  drug response of ARID1A knockdown H1993 cells: conferred resistance
[6]; shSMARCE1#1 and #2
  drug response of SMARCE1 knockdown H1993 cells: conferred resistance
[6]; shSMARCE1 plus SMARCE1-ND
  drug response of SMARCE1 knockdown H1993 cells reconstituted with SMARCE1-ND: restored the sensitivity
[7]; shSMARCE1#1 and #2
  drug response of SMARCE1 knockdown EBC-1 cells: conferred resistance
[7]; shSMARCE1 plus SMARCE1-ND
  drug response of SMARCE1 knockdown EBC-1 cells reconstituted with SMARCE1-ND: restored the sensitivity

## C#Cc1cccc(Nc2ncnc3cc(OCCOC)c(OCCOC)cc23)c1 [erlotinib]
[8]; shDAB2IP#1 and #3, 50 nM
  drug response of DAB2IP knockdown PC9 cells: conferred resistance
[8]; shNF1#2 and #5, 50 nM
  drug response of NF1 knockdown PC9 cells: conferred resistance
[9]
  sensitivity of PC9 cells: exquisitely sensitive
[10]
  sensitivity of H3255 cells: exquisitely sensitive
[11]; pRS and shGFP control cells
  drug response of control H3255 cells: effectively eradicated
[11]; shMED12
  drug response of MED12 knockdown H3255 cells: insensitive

## COc1cc2ncnc(Nc3ccc(F)c(Cl)c3)c2cc1OCCCN1CCOCC1 [gefitinib]
phospho-ERK [12]
  phosphorylation of ERK in shDAB2IP PC9 cells treated with drug: maintained
ERK signaling
  activation of ERK signaling by MED12 suppression in the presence of drug: persists

## CNC(=O)c1cc(Oc2ccc(NC(=O)Nc3ccc(Cl)c(C(F)(F)F)c3)cc2)ccn1 [sorafenib]
Huh-7 HCC cells; parental cells
  sensitivity of Huh-7 cells: sensitive
Huh-7 HCC cells; shMED12, 2 μM sorafenib
  drug response of MED12 knockdown Huh-7 cells: became resistant
ERK signaling
  activation of ERK signaling by MED12 suppression in the presence of drug: persists

## TGFβ
[8]; TGFβ plus EGFR inhibitors
  effect of recombinant TGFβ on response of PC9 cells to EGFR inhibitors: conferred resistance
[2]
  effect of recombinant TGFβ on crizotinib response of H3122 cells: continued to proliferate
[2]; listed as Recombinant TGFβ
  effect of recombinant TGFβ on crizotinib response of H3122 cells: leads to resistance
Huh-7 HCC cells; TGFβ treatment alone
  proliferation of Huh-7 cells, recombinant TGFβ alone: growth inhibition
[5]
  effect of recombinant TGFβ on response of A375 cells to PLX4032 and AZD6244: dosage dependent resistance
[5]; listed as Recombinant TGFβ
  effect of recombinant TGFβ on response of A375 cells to PLX4032 and AZD6244: leads to resistance
[5]; TGFβ treatment alone
  proliferation of A375 cells, recombinant TGFβ alone: growth inhibition
[1]
  effect of recombinant TGFβ on response of SK-CO-1 cells to AZD6244: dosage dependent resistance
[1]; listed as Recombinant TGFβ
  effect of recombinant TGFβ on response of SK-CO-1 cells to AZD6244: leads to resistance
[11]; TGFβ plus EGFR inhibitors
  effect of recombinant TGFβ on response of H3255 cells to EGFR inhibitors: conferred resistance
